26 compounds from US8901118B2, “Compounds and methods for kinase modulation, and indications therefor” (Plexxikon Inc., priority 2010, dated 2014) can be followed below.

One experiment has as its target CYP2C19 (Homo sapiens, UniProt P33261). The experiment can be described thus: CYP2C19 inhibition (fluorescent substrate CEC). Conditions: read-out: Cyp IC50 2C19. Format: in vitro ADME. Put shortly: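 Test compound titrated 1:1 across ten concentrations; metabolite fluorescence measured after 37 °C incubation of 15 min (CYP1A2), 30 min (CYP2C19, CYP2D6) or 45 min (CYP2C9). IC50 from signal versus concentration.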

In another experiment the target is T1, BCR-NTRK1 BaF3 cells (Homo sapiens, UniProt P04629).
T1 construct: fused on or other part: P11274 (Breakpoint cluster region protein)
Nature of the experiment: BaF3 BCR-NTRK1 cell proliferation assay (ATPlite). Format: cell-based. The following applies: read-out: Inhibition of Cell Proliferation IC50, BCR/BaF3 TrkA. Put shortly: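 Cells are plated overnight: BaF3 at 10,000/well in G418 medium without WEHI/IL-3, MV-4-11 at 25,000/well in IMDM with 10% FBS. An 8-point 1:3 compound titration (10 μM top) is then added, and plates are incubated 3 days at 37 °C before ATPlite readout and IC50 determination.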
Background: Cellular ATP, detected with luciferase, serves as a proxy for viable cell number.

T1 sequence (P04629 510-781): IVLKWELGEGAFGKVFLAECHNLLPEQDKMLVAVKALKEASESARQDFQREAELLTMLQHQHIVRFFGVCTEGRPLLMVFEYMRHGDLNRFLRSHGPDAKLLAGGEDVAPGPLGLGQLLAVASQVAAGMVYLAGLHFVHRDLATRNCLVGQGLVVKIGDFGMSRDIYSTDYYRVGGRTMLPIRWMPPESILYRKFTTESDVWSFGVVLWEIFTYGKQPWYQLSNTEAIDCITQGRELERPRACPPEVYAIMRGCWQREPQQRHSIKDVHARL
CYP2C19, sequence (P33261 whole entry): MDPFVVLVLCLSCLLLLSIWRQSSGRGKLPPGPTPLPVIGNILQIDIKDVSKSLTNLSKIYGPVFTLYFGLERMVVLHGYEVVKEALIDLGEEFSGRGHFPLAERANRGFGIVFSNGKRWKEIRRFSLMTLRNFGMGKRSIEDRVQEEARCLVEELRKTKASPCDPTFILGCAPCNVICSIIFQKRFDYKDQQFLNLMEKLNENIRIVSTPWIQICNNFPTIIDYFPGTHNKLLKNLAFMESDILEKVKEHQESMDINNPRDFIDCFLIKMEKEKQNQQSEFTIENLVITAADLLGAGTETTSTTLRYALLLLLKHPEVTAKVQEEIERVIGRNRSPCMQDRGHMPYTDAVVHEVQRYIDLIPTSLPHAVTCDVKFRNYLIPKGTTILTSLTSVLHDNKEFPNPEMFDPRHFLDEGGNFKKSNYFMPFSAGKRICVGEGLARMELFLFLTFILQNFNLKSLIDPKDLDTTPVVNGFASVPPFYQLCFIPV

With `CCc1ccc(Nc2ccc(C(=O)c3c[nH]c4ncnc(NC5CC5)c34)c(F)n2)cn1` [Compound P-4125, [4-(cyclopropylamino)-7H-pyrrolo[2,3-d]pyrimidin-5-yl]-[6-[(6-ethyl-3-pyridyl)amino]-2-fluoro-3-pyridyl]methanone], the IC50 on CYP2C19 was over 10 µM; on BCR-NTRK1 BaF3 cells, under 0.01 µM.

For the compound `CCCNc1ncnc2[nH]cc(C(=O)c3ccc(Nc4cncc(OC)c4)nc3F)c12` [Compound P-4105, [2-fluoro-6-[(5-methoxy-3-pyridyl)amino]-3-pyridyl]-[4-(propylamino)-7H-pyrrolo[2,3-d]pyrimidin-5-yl]methanone], the IC50 on CYP2C19 was over 10 µM; at BCR-NTRK1 BaF3 cells, under 0.1 µM.

For `Fc1nc(NC2CCC(F)(F)CC2)ccc1Cc1c[nH]c2ncc(Cl)cc12` [Compound P-3013, [5-(5-Chloro-1H-pyrrolo[2,3-b]pyridin-3-ylmethyl)-6-fluoro-pyridin-2-yl]-(4,4-difluoro-cyclohexyl)-amine], the IC50 was under 5 µM at CYP2C19 and over 10 µM on BCR-NTRK1 BaF3 cells.

Regarding `COc1cncc(Nc2ccc(C(=O)c3c[nH]c4ncnc(NC(C)C)c34)c(F)n2)c1` [Compound P-4106, [2-fluoro-6-[(5-methoxy-3-pyridyl)amino]-3-pyridyl]-[4-(isopropylamino)-7H-pyrrolo[2,3-d]pyrimidin-5-yl]methanone], the results for the IC50 on CYP2C19 and at BCR-NTRK1 BaF3 cells were under 5 µM and under 0.1 µM, respectively.

As for `COc1cncc(Nc2ccc(C(=O)c3c[nH]c4ncnc(NC5CC5)c34)c(F)n2)c1` [Compound P-4107, [4-(cyclopropylamino)-7H-pyrrolo[2,3-d]pyrimidin-5-yl]-[2-fluoro-6-[(5-methoxy-3-pyridyl)amino]-3-pyridyl]methanone], the IC50 was under 5 µM on CYP2C19 and under 0.1 µM at BCR-NTRK1 BaF3 cells.

On to `CC(C)Nc1ncnc2[nH]cc(C(=O)c3ccc(NC4CCCCC4)nc3Cl)c12` [Compound P-4109, [2-chloro-6-(cyclohexylamino)-3-pyridyl]-[4-(isopropylamino)-7H-pyrrolo[2,3-d]pyrimidin-5-yl]methanone], for which the figures for the IC50 at CYP2C19 and at BCR-NTRK1 BaF3 cells were 5 to 10 µM and under 1 µM, respectively.

For the compound `CCc1ccc(Nc2ccc(C(=O)c3c[nH]c4ncnc(NCC(C)(C)O)c34)c(F)n2)cn1` [Compound P-4064, [6-[(6-ethyl-3-pyridyl)amino]-2-fluoro-3-pyridyl]-[4-[(2-hydroxy-2-methyl-propyl)amino]-7H-pyrrolo[2,3-d]pyrimidin-5-yl]methanone], the IC50 on CYP2C19 is over 10 µM; at BCR-NTRK1 BaF3 cells, under 0.1 µM.

With `O=C(c1ccc(NC2CCC(F)(F)CC2)nc1F)c1c[nH]c2ncnc(NC3CC3)c12` [Compound P-4062, [4-(cyclopropylamino)-7H-pyrrolo[2,3-d]pyrimidin-5-yl]-[6-[(4,4-difluorocyclohexyl)amino]-2-fluoro-3-pyridyl]methanone], the IC50 on CYP2C19 was over 10 µM; on BCR-NTRK1 BaF3 cells, under 0.01 µM.

As to `Cc1cnc2[nH]cc(Cc3cnc(Nc4ccc(F)cc4)nc3)c2c1` [Compound P-3010, (4-Fluoro-phenyl)-[5-(5-methyl-1H-pyrrolo[2,3-b]pyridin-3-ylmethyl)-pyrimidin-2-yl]-amine], the IC50 on CYP2C19 and at BCR-NTRK1 BaF3 cells was over 10 µM each time.

As to `CNc1ncnc2[nH]cc(C(=O)c3ccc(NC4CCC(F)(F)CC4)nc3)c12` [Compound P-4089, [6-[(4,4-difluorocyclohexyl)amino]-3-pyridyl]-[4-(methylamino)-7H-pyrrolo[2,3-d]pyrimidin-5-yl]methanone], the IC50 is over 10 µM on CYP2C19 and under 1 µM at BCR-NTRK1 BaF3 cells.

For the compound `CCNc1ncnc2[nH]cc(C(=O)c3ccc(Nc4ccc(CC)nc4)nc3F)c12` [Compound P-4123, [4-(ethylamino)-7H-pyrrolo[2,3-d]pyrimidin-5-yl]-[6-[(6-ethyl-3-pyridyl)amino]-2-fluoro-3-pyridyl]methanone], the values for the IC50 on CYP2C19 and at BCR-NTRK1 BaF3 cells were over 10 µM and under 0.01 µM, respectively.

In the case of `CCC(CC)Nc1ncnc2[nH]cc(C(=O)c3ccc(Nc4ccc(OC)nc4)nc3F)c12` [Compound P-4077, [4-(1-ethylpropylamino)-7H-pyrrolo[2,3-d]pyrimidin-5-yl]-[2-fluoro-6-[(6-methoxy-3-pyridyl)amino]-3-pyridyl]methanone], the values for the IC50 at CYP2C19 and at BCR-NTRK1 BaF3 cells were 5 to 10 µM and under 0.01 µM, respectively.

For `CCc1ccc(Nc2ccc(C(=O)c3c[nH]c4ncnc(N[C@@H](C)c5ccc(F)cc5)c34)c(F)n2)cn1` [Compound P-4097, [6-[(6-ethyl-3-pyridyl)amino]-2-fluoro-3-pyridyl]-[4-[[(1S)-1-(4-fluorophenyl)ethyl]amino]-7H-pyrrolo[2,3-d]pyrimidin-5-yl]methanone], the IC50 was under 5 µM at CYP2C19 and under 0.1 µM at BCR-NTRK1 BaF3 cells.

Turning to `CCC(C)Nc1ncnc2[nH]cc(C(=O)c3ccc(Nc4ccc(OC)nc4)nc3F)c12` (stereo not shown) [Compound P-4078, [2-fluoro-6-[(6-methoxy-3-pyridyl)amino]-3-pyridyl]-[4-(sec-butylamino)-7H-pyrrolo[2,3-d]pyrimidin-5-yl]methanone], the values for the IC50 on CYP2C19 and at BCR-NTRK1 BaF3 cells were over 10 µM and under 0.01 µM, respectively.

For `COc1ccc(Nc2ccc(C(=O)c3c[nH]c4ncnc(NCC5CCCO5)c34)c(F)n2)cn1` (stereo not shown) [Compound P-4073, [2-fluoro-6-[(6-methoxy-3-pyridyl)amino]-3-pyridyl]-[4-(tetrahydrofuran-2-ylmethylamino)-7H-pyrrolo[2,3-d]pyrimidin-5-yl]methanone], the results for the IC50 at CYP2C19 and on BCR-NTRK1 BaF3 cells were 5 to 10 µM and under 0.1 µM, respectively.

Regarding `CCc1ccc(Nc2ccc(C(=O)c3c[nH]c4ncnc(NC5CCC(F)(F)CC5)c34)c(F)n2)cn1` [Compound P-4096, [4-[(4,4-difluorocyclohexyl)amino]-7H-pyrrolo[2,3-d]pyrimidin-5-yl]-[6-[(6-ethyl-3-pyridyl)amino]-2-fluoro-3-pyridyl]methanone], the IC50 at CYP2C19 is under 5 µM; at BCR-NTRK1 BaF3 cells it was under 0.01 µM.

For `CNc1ncnc2[nH]cc(C(=O)c3ccc(Nc4ccc(C)nc4)nc3F)c12` [Compound P-4115, [2-fluoro-6-[(6-methyl-3-pyridyl)amino]-3-pyridyl]-[4-(methylamino)-7H-pyrrolo[2,3-d]pyrimidin-5-yl]methanone], the results for the IC50 on CYP2C19 and on BCR-NTRK1 BaF3 cells were under 5 µM and under 0.1 µM, respectively.

On to `CCc1ccc(Nc2ccc(C(=O)c3c[nH]c4ncnc(NCC5CC5)c34)c(F)n2)cn1` [Compound P-4118, [4-(cyclopropylmethylamino)-7H-pyrrolo[2,3-d]pyrimidin-5-yl]-[6-[(6-ethyl-3-pyridyl)amino]-2-fluoro-3-pyridyl]methanone], for which the IC50 on CYP2C19 is over 10 µM; at BCR-NTRK1 BaF3 cells it was under 0.01 µM.

Regarding `CCN1CCC(Nc2ncnc3[nH]cc(C(=O)c4ccc(Nc5ccc(OC)nc5)nc4F)c23)CC1` [Compound P-4074, [4-[(1-ethyl-4-piperidyl)amino]-7H-pyrrolo[2,3-d]pyrimidin-5-yl]-[2-fluoro-6-[(6-methoxy-3-pyridyl)amino]-3-pyridyl]methanone], the IC50 on CYP2C19 is 5 to 10 µM; at BCR-NTRK1 BaF3 cells it was under 0.1 µM.

`CCc1ccc(Nc2ccc(C(=O)c3c[nH]c4ncnc(NCCCOC)c34)c(F)n2)cn1` [Compound P-4098, [6-[(6-ethyl-3-pyridyl)amino]-2-fluoro-3-pyridyl]-[4-(3-methoxypropylamino)-7H-pyrrolo[2,3-d]pyrimidin-5-yl]methanone]: the IC50 at CYP2C19 is under 5 µM; at BCR-NTRK1 BaF3 cells, under 0.01 µM.

With `COc1ccc(Nc2ccc(C(=O)c3c[nH]c4ncnc(N5CCCCC5)c34)c(F)n2)cn1` [Compound P-4069, [2-fluoro-6-[(6-methoxy-3-pyridyl)amino]-3-pyridyl]-[4-(1-piperidyl)-7H-pyrrolo[2,3-d]pyrimidin-5-yl]methanone], the IC50 on CYP2C19 was 5 to 10 µM; at BCR-NTRK1 BaF3 cells, over 1 µM.

On to `CCc1ccc(Nc2ccc(C(=O)c3c[nH]c4ncnc(NCCOC)c34)c(F)n2)cn1` [Compound P-4119, [6-[(6-ethyl-3-pyridyl)amino]-2-fluoro-3-pyridyl]-[4-(2-methoxyethylamino)-7H-pyrrolo[2,3-d]pyrimidin-5-yl]methanone], for which the figures for the IC50 on CYP2C19 and on BCR-NTRK1 BaF3 cells were over 10 µM and under 0.01 µM, respectively.

`CCNc1ncnc2[nH]cc(C(=O)c3ccc(Nc4ccc(C5CC5)nc4)nc3F)c12` [Compound P-4060, [6-[(6-cyclopropyl-3-pyridyl)amino]-2-fluoro-3-pyridyl]-[4-(ethylamino)-7H-pyrrolo[2,3-d]pyrimidin-5-yl]methanone]: the IC50 is over 10 µM on CYP2C19 and under 0.01 µM at BCR-NTRK1 BaF3 cells.

As for `CCCNc1ncnc2[nH]cc(C(=O)c3ccc(Nc4ccc(C)nc4)nc3F)c12` [Compound P-4114, [2-fluoro-6-[(6-methyl-3-pyridyl)amino]-3-pyridyl]-[4-(propylamino)-7H-pyrrolo[2,3-d]pyrimidin-5-yl]methanone], the values for the IC50 at CYP2C19 and on BCR-NTRK1 BaF3 cells were over 10 µM and under 0.01 µM, respectively.

For the compound `O=C(c1ccc(NC2CCC(F)(F)CC2)nc1F)c1c[nH]c2ncnc(NCC(F)(F)F)c12` [Compound P-4061, [6-[(4,4-difluorocyclohexyl)amino]-2-fluoro-3-pyridyl]-[4-(2,2,2-trifluoroethylamino)-7H-pyrrolo[2,3-d]pyrimidin-5-yl]methanone], the figures for the IC50 on CYP2C19 and at BCR-NTRK1 BaF3 cells were over 10 µM and under 0.1 µM, respectively.

As to `CNc1ncnc2[nH]cc(C(=O)c3ccc(NC4CCCCC4)nc3Cl)c12` [Compound P-4110, [2-chloro-6-(cyclohexylamino)-3-pyridyl]-[4-(methylamino)-7H-pyrrolo[2,3-d]pyrimidin-5-yl]methanone], the values for the IC50 at CYP2C19 and on BCR-NTRK1 BaF3 cells were under 5 µM and over 1 µM, respectively.
